Here are results for five compounds from PMC3975428, “Dimers of G-Protein Coupled Receptors as Versatile Storage and Response Units” (International Journal of Molecular Sciences, 2014).

Assay [1] has as its system 180 kDa heteropentamer and 90 kDa monomer-Gi α of Y2 receptor. The settings on record: 10 mM CHAPS, cited from earlier work. From the text:
The stability and affinity of agonist association with CHO-Y2 receptors could also be analyzed at the level of dimers and monomers by extraction and precipitation procedures coupled to competition binding assays (Figure 6). […] The 180 kDa labeled material is not sensitive to ...

For assay [2], the system named is neuropeptide Y (NPY) receptor dimers. Conditions: cited from earlier work. An excerpt:
The most studied and probably the most frequent complexes of eukaryotic heptahelical receptors are those with G-protein αβγ heterotrimers. With many GPCR dimers these assemblies survive solubilization by steroid detergents such as digitonin and cholate and could be detected as ~180 kDa heteropentamers by density gradient centrifugation ([15, 16]; see also Figure 1 in this study) and also can be solubilized by acylamine oxide surfactants such as lauryldimethylamine oxide (LDAO) and detected by circular dichroism spectroscopy. The frequently used zwitterionic detergents, e.g., CHAPS (3 ...

For assay [3], the system named is Y2 receptor aggregates (rabbit kidney). Briefly: Y2 receptor aggregates, sedimentation after treatment, rabbit kidney particulates. Type of assay: biochemical. Conditions: 15 min at 24 °C. Here is the method:
(§1) Figure 5. […] Particulates from rabbit kidney (A) and anterior hypothalamus (B) were incubated with 20 μM GγS or 10 μM U73122 for 15 min at 24 °C, sedimented, resuspended, labeled with 50 pM [^125I]hPYY(3–36) for 15 min at 24 °C, resedimented, lysed at 10 mM each digitonin and cholate and sedimented through a 10%–30% linear sucrose gradient for 6 h at 218,000× g and 5 °C, followed by gradient fractionation and counting. TEXT PRINTED IN THE PICTURE: (A) GγS: Bottom count: 10.8% | (A) U73122: Bottom count: 25.4% | (B) GγS: Bottom count: 8.98 % | (B) U73122: Bottom count: 17.4 %
(§2) Rabbit kidney postmitochondrial particulates, rabbit piriform cortex and hypothalamic crude synaptosomes and CHO cell postnuclear particulates were prepared as described previously. After solubilization of particulates at 10 mM each of digitonin and sodium cholate in buffer A or B, the lysates were spun for 10 min at 1000× g to remove debris, and the supernatants sedimented for periods indicated in figure captions at 218,000× gmax through linear 5%–20% sucrose gradients (10 mL, made in buffer A). The gradients were divided by bottom dripping in 23 fractions of 0.45 mL. The sedimentation positions were calibrated with [^125I]-labeled bovine γ-globulin (158 kDa), human iron-saturated transferrin (75 kDa) and ovalbumin (44 kDa), and with colorized myosin (211 kDa), producing a linear relation of migration to molecular weight (R^2 > 0.99).

Assay [4] deals with Y2 receptor aggregates (anterior hypothalamus). Nature of the assay: Y2 receptor aggregates, sedimentation after treatment, rabbit anterior hypothalamus particulates. Type of assay: biochemical. Conditions: 20 μM, 15 min at 24 °C, 10%–30% gradient 6 h at 218,000× g. The protocol: as §1
Rabbit kidney postmitochondrial particulates, rabbit piriform cortex and hypothalamic crude synaptosomes and CHO cell postnuclear particulates were prepared as described previously. After solubilization of particulates at 10 mM each of digitonin and sodium cholate in buffer A or B, the lysates were spun for 10 min at 1000× g to remove debris, and the supernatants sedimented for periods indicated in figure captions at 218,000× gmax through linear 5%–20% sucrose gradients (10 mL, made in buffer A). The gradients were divided by bottom dripping in 23 fractions of 0.45 mL. […]

For assay [5], the system named is aggregated Y2 receptor material (rabbit kidney and CHO-Y2 particulates). Nature of the assay: Release of aggregated Y2 receptor material (bottom of 5%–20% gradients). The settings on record: 20 μM. It counts as biochemical. Here is the method: More than 30% of the Y2 binding in rabbit kidney postmitochondrial particulates, and more than 20% in the CHO-Y2 postnuclear particulates sediments to the bottom of 5%–20% sucrose gradients over 18 h at 218,000× gmax, corresponding to weight in excess of 1000 kDa. A large part of this material sediments at 30,000× gmax over 10 min, and could be considered as aggregated. […] This preliminary experiment points to potential of such procedures in quantitation of effector-associated receptors at the level of dimers and monomers. There also is a promise of gaining more insight on the size and significance of receptor oligomers incorporating more than two receptor monomers.
as §2

Assay [6] deals with 180 kDa heteropentamer (Y2 receptor dimer, G-protein trimer). Nature of the assay: Nucleotide labeling / conversion of 180 kDa heteropentamer to 90 kDa Gi3α-receptor monomer. Type of assay: biochemical. The protocol:
(§3) The receptors were labeled for 30 min at 25 °C in respective particulates (50 μg protein/assay), employing not more than 50 pM [^125I]-labeled agonist peptides (as stated in individual experiments). Higher molar inputs of agonist peptides would produce significant Gα activation within short exposures (e.g., [24, 53]). The basal assay buffer contained 0.2% proteinase-free bovine serum albumin, 20 mM hepes.NaOH (pH 7.4), 1 mM diisopropylfluorophosphate, 0.04% bacitracin, and 10 μg/mL each of proteinase inhibitors aprotinin, bestatin, chymostatin, leupeptin and pepstatin. Depending on experiment design, this was supplemented by 3 mM CaCl2 and 1 mM MgCl2, (buffer A) or by 1 mM Na EDTA, pH 7.4 (buffer B). The nucleotide site labeling at 200 pM [^35S]GγS was for 30 min at 28 °C after pre-activation for 30 min at 28 °C at 3 μM GDP in the basal buffer with 50 μM EDTA, 100 mM NaCl and 4 mM MgCl2, and without CaCl2 (buffer C). All subsequent operations were carried out at 0–5 °C. The assays were terminated by sedimentation for 10 min at 30,000× gmax, followed by surface wash of the pellets.
as §2, with “0.99). […]” for “0.99).”

Another assay relates to G-protein α subunit. Briefly: Stability of GγS labeling. Type of assay: biochemical. The settings on record: 4 °C. The protocol:
as §3

Another assay concerns Gi/o subunits. The settings on record: hypothalamic vs. rabbit kidney cortex; Table 2; cited from earlier work. From the text: (§4) Figure 2. Rundown of the Y2 agonist is much faster in tissues with large Gi/o content. […] The rabbit kidney cortex has a much lower expression of Gi/o subunits than the anterior hypothalamus (The Bmax for [^35S]GγS binding is more than 20-fold higher in hypothalamic tissue (ref. [24], Table 2). However, the kidney Y2 receptor is expressed at about four times the level of the hypothalamic. The above parameters in the Ca^2+/Mg^2 ...

Assay [7] concerns Y2 receptor dimers (CHO cells). Briefly: Dimer content of Y2 receptors labeled by [^125I]PYY(3–36) in density gradients. It counts as binding, human receptor in CHO cells. The settings on record: duplicate gradients; for dimer content: labeled 30 min at 25 °C; for content of dimer: particulates from CHO cells, labeled 20 min at 27 °C. The protocol:
Figure 1. Stability of agonist-labeled Y2 receptor dimers to incubation at 27 °C and to removal of divalent cations. Duplicate 5%–20% gradients (see Section 3.3) were centrifuged for 18 h at 5 °C. All results are average percentages of total counts in the corresponding gradient fractions from two gradients for each condition. The respective standard errors were in most cases below 10%, and for clarity are not shown. (A) Y2 receptor dimers in particulates from CHO cells are stable to incubation at 27 °C. The incubation of particulate suspension in the assay buffer at 27 °C was for 1 h (followed by 2 h at 0–4 °C) or 3 h, while the control suspension was incubated in ice for 3 h. […] The content of dimer, in % total gradient counts, was 66.2 ± 3.7 for 4 °C control, 63.4 ± 3.4 after preincubation for 1 h at 27 °C, and 64.3 ± 3.4 after preincubation for 3 h at 27 °C; (B) Y2 receptor dimers are not disbanded by removal of divalent cations.
as §3, with “Higher” for “The receptors were labeled for 30 min at 25 °C in respective particulates (50 μg protein/assay), employing not more than 50 pM [^125I]-labeled agonist peptides (as stated in individual experiments). Higher”
as §2

In assay [8] the test system is rabbit kidney Y2 receptor. Nature of the assay: PYY(3–36) binding to rabbit kidney Y2 receptor (heteropentamer and monomer forms). Conditions: rabbit kidney particulates, digitonin and cholate lysis.
In assay [9] the test system is Y2 receptor (hypothalamic particulates). Nature of the assay: Rundown of Y2 agonist tracer, anterior hypothalamus. It counts as biochemical, rabbit. The settings on record: 50 pM, 60 min at 25 °C, Ca^2+/Mg^2+ buffer.
Source text: as §4, with “Ca^2+/Mg^2+ buffer lead to a much faster transduction with hypothalamic particulates (graph A); and a considerable (58%) rundown of the tracer peptide relative to 1 mM EDTA buffer. In the same assay, the relative rundown is only 12% with kidney particulates (graph B).” for “Ca^2+/Mg^2 ...”
as §3, with “The nucleotide site labeling at 200 pM [^35S]GγS was for 30 min at 28 °C after pre-activation for 30 min at 28 °C at 3 μM GDP in the basal buffer with 50 μM EDTA, 100 mM NaCl and 4 mM MgCl2, and without CaCl2 (buffer C). All subsequent operations were carried out at 0–5 °C. The assays were terminated by sedimentation for 10 min at 30,000× gmax, followed by surface wash of the pellets.” left out

The test system of assay [10] is Y2 receptor (rabbit kidney cortex particulates). Briefly: Rundown of Y2 agonist tracer, kidney cortex. It counts as biochemical. Conditions: 50 pM, 60 min at 25 °C, Ca^2+/Mg^2+ buffer.
Source text: as §4, with “Ca^2+/Mg^2+ buffer lead to a much faster transduction with hypothalamic particulates (graph A); and a considerable (58%) rundown of the tracer peptide relative to 1 mM EDTA buffer. In the same assay, the relative rundown is only 12% with kidney particulates (graph B).” for “Ca^2+/Mg^2 ...”
Higher molar inputs of agonist peptides would produce significant Gα activation within short exposures (e.g., [24, 53]). The basal assay buffer contained 0.2% proteinase-free bovine serum albumin, 20 mM hepes.NaOH (pH 7.4), 1 mM diisopropylfluorophosphate, 0.04% bacitracin, and 10 μg/mL each of proteinase inhibitors aprotinin, bestatin, chymostatin, leupeptin and pepstatin. Depending on experiment design, this was supplemented by 3 mM CaCl2 and 1 mM MgCl2, (buffer A) or by 1 mM Na EDTA, pH 7.4 (buffer B). […]

The subject of a further assay is CHO-Y1 dimers. Conditions: ADP-ribosylation of Gi type α subunits; cited from earlier work. An excerpt:
(§5) This could be of interest in many physiological conditions. The loss of CHO-Y1 and CHO-Y2 dimers due to neutralization of Gi type α subunits through ADP-ribosylation by pertussis toxin [16, 29] could be viewed as a constitutive equivalent of the reduction shown in Figure 4. In conditions of normal Gi utilization in CHO-Y2, the di ...

A further assay has as its system CHO-Y2 dimers. The settings on record: ADP-ribosylation of Gi type α subunits; cited from earlier work.
Source text: as §5

Another assay deals with NPY receptor dimers. The settings on record: via ADP-ribosylation of Gαi subunits; cited from earlier work. An excerpt:
The virtues of oligomerization for GPCRs are many. Oligomers would have much larger ability than monomers to anchor to the membranes, rafts and vesicles. Protein (including the receptor) removal by particulate (proteasomal and/or lysosomal) proteolysis is found to be much less for dimers compared to monomers, as is also observed for enzyme carriers. This is dramatically confirmed by elimination of NPY receptor dimers by pertussis toxin via ADP-ribosylation of Gαi subunits. Association with transducers and effectors could also be enhanced for the dimers. Chances ...

Turning to `C[C@H](CCC(=O)NCCC[N+](C)(C)CCCS(=O)(=O)[O-])[C@H]1CC[C@H]2[C@@H]3[C@H](O)C[C@@H]4C[C@H](O)CC[C@]4(C)[C@H]3C[C@H](O)[C@]12C` [CHAPS, 3-[3-cholamidopropyldimethylammonio]-1-propanesulfonate], the “sensitivity of 180 kDa binding” value in assay [1] (relative to 90 kDa zone) is given as “much less sensitive”. For the same compound, in assay [1], the “effect on 90 kDa zone agonist binding” value is “completely dissociates”. Moreover, the “effect on NPY receptor dimers” value in assay [2] is recorded as “tend to destabilize”.
As to `Nc1nc2c(ncn2[C@@H]2O[C@H](COP(=O)(O)OP(=O)(O)OP(O)(O)=S)[C@@H](O)[C@H]2O)c(=O)[nH]1` [GγS, Guanosine 5′-O-(γ-thiotriphosphate)], the “main form yielded from Y2 receptor aggregates” value in assay [3] (particulates from rabbit tissues (kidney and anterior hypothalamus), GγS 20 μM or U73122 10 μM) was “mainly Gi-Y2 monomer”. Moreover, the Bottom count in assay [3] (rabbit kidney, 20 μM, 10%–30% gradient 6 h at 218,000× g) was found to be 10.8%. This compound also had a Bottom count in assay [4] of 8.98%. Besides, in assay [5], the “form of released material” value is given as “largely in the form of activated monomers” and the “part of aggregated material released” value is “A considerable part”. The “labeling of G-protein trimer in 180 kDa heteropentamer” value in assay [6] is listed as “not labeled”. Besides, in [6] (1–5 mM Mg^2+, micromolar GDP or GγS), the “conversion of 180 kDa heteropentamer” value was “does convert to immunoprecipitable 90 kDa Gi3α-receptor monomer”. Besides, the “stability of G-protein α subunit labeling” value with G-protein α subunit is “stable at 4 °C”.
Turning to `Nc1nc2c(ncn2C2OC(COP(=O)(O)OP(=O)(O)OP(O)(O)=[35S])C(O)C2O)c(=O)[nH]1` (centres unmarked) [[^35S]GγS, [^35S]guanosine 5′-(γ-thio)triphosphate], in the assay on Gi/o subunits, the “Bmax for binding, hypothalamic relative to kidney tissue” value is reported as “more than 20 fold”.
With “[^125I]PYY(3–36): Monoiodinated HPLC-purified [^125I]human PYY(3–36), labeled Y2 agonist”, the dimer content is reported as 65.9 ± 4.7 % gradient counts in [7] (buffer A (3 mM CaCl2, 1 mM MgCl2)) and 60.8 ± 4.6 % gradient counts in assay [7] (buffer B (1 mM Na EDTA, divalent cations removed)). Besides, the content of dimer is reported as 66.2 ± 3.7 % total gradient counts in assay [7] (4 °C control (3 h in ice)), 63.4 ± 3.4 % total gradient counts in [7] (preincubation 1 h at 27 °C (then 2 h at 0–4 °C)) and 64.3 ± 3.4 % total gradient counts in assay [7] (preincubation 3 h at 27 °C). Also, in assay [8], the “degradation of the receptor-bound tracer” value was “very low”. Further, the “rundown of the tracer peptide relative to 1 mM EDTA buffer” value in [9] is reported as 58%; in [10], 12%.
Regarding pertussis toxin, in the assay with CHO-Y1 dimers, the “effect on CHO-Y1 dimers” value was “loss”. For the same compound, the “effect on CHO-Y2 dimers” value in the assay on CHO-Y2 dimers is given as “loss”. Also, the “effect on NPY receptor dimers” value in the assay on NPY receptor dimers was “elimination”.
